Measurements reported in ChEMBL document CHEMBL1201862, “PubChem BioAssay data set” (2004).
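Grown in 96-well plates, cells were treated for 48 hours with each compound at five concentrations. Insufficient inhibition: endpoint recorded as highest concentration tested. GI50 is the concentration that inhibits growth by half.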 Active and inactive are the calls of the source. No stated cut-off is given here; in the data, active = GI50 up to about 1.1 µM and inactive = higher.

Assays:
Test in all cases: DTP human tumour cell line panel, 48 h
EKVX = tested on: EKVX
OVCAR-8 = tested on: OVCAR-8
NCI-H460 = tested on: NCI-H460
NCI-H522 = tested on: NCI-H522
MDA-N = tested on: MDA-N
NCI/ADR-RES = tested on: NCI/ADR-RES
Hs-578T = tested on: Hs-578T
HOP-62 = tested on: HOP-62
HCC 2998 = tested on: HCC 2998
OVCAR-3 = tested on: OVCAR-3
SNB-19 = tested on: SNB-19
KM12 = tested on: KM12
UACC-62 = tested on: UACC-62
DU-145 = tested on: DU-145
HT-29 = tested on: HT-29
SR = tested on: SR
HCT-116 = tested on: HCT-116
A498 = tested on: A498
M14 = tested on: M14

SMILES	GI50 (EKVX)	GI50 (OVCAR-8)	GI50 (NCI-H460)	GI50 (NCI-H522)	GI50 (MDA-N)	GI50 (NCI/ADR-RES)	GI50 (Hs-578T)	GI50 (HOP-62)	GI50 (HCC 2998)	GI50 (OVCAR-3)	GI50 (SNB-19)	GI50 (KM12)	GI50 (UACC-62)	GI50 (DU-145)	GI50 (HT-29)	GI50 (SR)	GI50 (HCT-116)	GI50 (A498)	GI50 (M14)
O=C(O)c1ccccc1Sc1ccc(C=C2NC(=S)N(c3ccccc3)C2=O)s1	97.3 µM (inactive)	> 100 µM (inactive)	> 100 µM (inactive)	21.4 µM (inactive)	> 100 µM (inactive)	> 100 µM (inactive)	> 100 µM (inactive)	> 100 µM (inactive)	97.5 µM (inactive)	47.5 µM (inactive)	> 100 µM (inactive)	> 100 µM (inactive)	> 100 µM (inactive)	> 100 µM (inactive)	> 100 µM (inactive)	29 µM (inactive)	72.8 µM (inactive)	> 100 µM (inactive)	–
O=c1ccn(C/C=C/c2ccccc2)c(=S)n1C/C=C/c1ccccc1	66.8 µM (inactive)	> 100 µM (inactive)	80 µM (inactive)	67.8 µM (inactive)	47.4 µM (inactive)	> 100 µM (inactive)	> 100 µM (inactive)	> 100 µM (inactive)	50.7 µM (inactive)	> 100 µM (inactive)	> 100 µM (inactive)	> 100 µM (inactive)	> 100 µM (inactive)	> 100 µM (inactive)	> 100 µM (inactive)	8.24 µM (inactive)	44.6 µM (inactive)	> 100 µM (inactive)	73.6 µM (inactive)
Nc1ccc(S(=O)(=O)Nc2nc3ccccc3nc2N2CCCCC2)cc1	> 100 µM (inactive)	61.8 µM (inactive)	79.3 µM (inactive)	31.1 µM (inactive)	> 100 µM (inactive)	46.3 µM (inactive)	> 100 µM (inactive)	> 100 µM (inactive)	33.7 µM (inactive)	> 100 µM (inactive)	> 100 µM (inactive)	70.1 µM (inactive)	> 100 µM (inactive)	> 100 µM (inactive)	> 100 µM (inactive)	60.5 µM (inactive)	80.7 µM (inactive)	–	91 µM (inactive)
CC(=O)OC[C@H]1On2nnnc2[C@H](OC(C)=O)[C@@H](OC(C)=O)[C@@H]1OC(C)=O	> 100 µM (inactive)	> 100 µM (inactive)	> 100 µM (inactive)	> 100 µM (inactive)	> 100 µM (inactive)	91.8 µM (inactive)	> 100 µM (inactive)	> 100 µM (inactive)	> 100 µM (inactive)	> 100 µM (inactive)	–	> 100 µM (inactive)	> 100 µM (inactive)	> 100 µM (inactive)	> 100 µM (inactive)	> 100 µM (inactive)	> 100 µM (inactive)	> 100 µM (inactive)	–
COc1ccc2c(-c3csc(-c4c[nH]c5ccccc45)n3)c[nH]c2c1	1.37 µM (inactive)	7.85 µM (inactive)	2.29 µM (inactive)	4.04 µM (inactive)	8.73 µM (inactive)	6.61 µM (inactive)	12.5 µM (inactive)	16.8 µM (inactive)	4.03 µM (inactive)	13.9 µM (inactive)	13.2 µM (inactive)	3.21 µM (inactive)	11.5 µM (inactive)	9.18 µM (inactive)	2.34 µM (inactive)	1.56 µM (inactive)	3.68 µM (inactive)	8.65 µM (inactive)	7.76 µM (inactive)
CC(C)C1=C(Cc2ccccc2)C(=O)O/C1=C\c1cc(Cl)c(O)c(Cl)c1	26.1 µM (inactive)	20.5 µM (inactive)	18.2 µM (inactive)	–	18.3 µM (inactive)	23.3 µM (inactive)	21.8 µM (inactive)	20.2 µM (inactive)	18.6 µM (inactive)	14.2 µM (inactive)	17.1 µM (inactive)	16.7 µM (inactive)	16.9 µM (inactive)	16 µM (inactive)	16.9 µM (inactive)	21.8 µM (inactive)	18.2 µM (inactive)	23.7 µM (inactive)	19.1 µM (inactive)
N#Cc1nc(CCN2C(=O)c3ccccc3C2=O)oc1N	> 100 µM (inactive)	> 100 µM (inactive)	> 100 µM (inactive)	> 100 µM (inactive)	> 100 µM (inactive)	> 100 µM (inactive)	> 100 µM (inactive)	> 100 µM (inactive)	0.0845 µM (active)	> 100 µM (inactive)	> 100 µM (inactive)	4.45 µM (inactive)	–	> 100 µM (inactive)	> 100 µM (inactive)	> 100 µM (inactive)	> 100 µM (inactive)	–	> 100 µM (inactive)
Cc1n[nH]c(=O)c2cc(-c3ccccc3)[nH]c12	36.6 µM (inactive)	72.3 µM (inactive)	48 µM (inactive)	–	73.3 µM (inactive)	57.8 µM (inactive)	26.4 µM (inactive)	> 100 µM (inactive)	44.3 µM (inactive)	54.1 µM (inactive)	> 100 µM (inactive)	88.5 µM (inactive)	33.8 µM (inactive)	94.8 µM (inactive)	33.2 µM (inactive)	46.8 µM (inactive)	52.6 µM (inactive)	25.9 µM (inactive)	53.3 µM (inactive)
CC(=O)OC12c3ccccc3C(c3ccccc31)C1C(=O)N(Nc3ccccc3)C(=O)C12 (stereo not given)	> 100 µM (inactive)	> 100 µM (inactive)	> 100 µM (inactive)	–	> 100 µM (inactive)	> 100 µM (inactive)	23.1 µM (inactive)	> 100 µM (inactive)	> 100 µM (inactive)	> 100 µM (inactive)	> 100 µM (inactive)	> 100 µM (inactive)	> 10 µM (inactive)	> 100 µM (inactive)	> 100 µM (inactive)	> 100 µM (inactive)	> 100 µM (inactive)	> 100 µM (inactive)	> 100 µM (inactive)
CC1(C)CC(=O)C(C(c2cccc(O)c2O)C2C(=O)CC(C)(C)CC2=O)C(=O)C1	> 100 µM (inactive)	81.7 µM (inactive)	> 100 µM (inactive)	63.2 µM (inactive)	> 100 µM (inactive)	> 100 µM (inactive)	74.5 µM (inactive)	> 100 µM (inactive)	–	97.7 µM (inactive)	> 100 µM (inactive)	> 100 µM (inactive)	> 100 µM (inactive)	> 100 µM (inactive)	> 100 µM (inactive)	36 µM (inactive)	> 100 µM (inactive)	> 100 µM (inactive)	> 100 µM (inactive)
CN1CC(c2ccccc2)C(O)(C2(c3ccccc3)CN(C)CC(c3ccccc3)C2=O)C(c2ccccc2)C1 (stereo not given)	> 100 µM (inactive)	> 100 µM (inactive)	45.8 µM (inactive)	> 100 µM (inactive)	> 100 µM (inactive)	> 100 µM (inactive)	23.1 µM (inactive)	77.1 µM (inactive)	–	> 100 µM (inactive)	> 100 µM (inactive)	> 100 µM (inactive)	> 100 µM (inactive)	> 100 µM (inactive)	> 100 µM (inactive)	> 100 µM (inactive)	75.3 µM (inactive)	91.2 µM (inactive)	> 100 µM (inactive)
Cc1c(C)c2c(c(N)c1C#N)C(=O)N(CCc1ccccc1)C2=O	> 100 µM (inactive)	> 100 µM (inactive)	> 100 µM (inactive)	> 100 µM (inactive)	> 100 µM (inactive)	> 100 µM (inactive)	> 100 µM (inactive)	–	> 100 µM (inactive)	> 100 µM (inactive)	> 100 µM (inactive)	> 100 µM (inactive)	> 100 µM (inactive)	> 100 µM (inactive)	–	38.5 µM (inactive)	> 100 µM (inactive)	> 100 µM (inactive)	> 100 µM (inactive)
OC1(c2ccc(Cl)cc2)c2ccc(CN3CCCC3)cc2C2=NCCN21 (stereo not given)	15.2 µM (inactive)	15.4 µM (inactive)	14.6 µM (inactive)	–	10.8 µM (inactive)	> 100 µM (inactive)	12.3 µM (inactive)	15.6 µM (inactive)	–	16.1 µM (inactive)	16.6 µM (inactive)	12.8 µM (inactive)	14.7 µM (inactive)	16 µM (inactive)	13.1 µM (inactive)	10.4 µM (inactive)	14.1 µM (inactive)	13.1 µM (inactive)	3.66 µM (inactive)
COc1ccc2oc(=N)c(C(=O)Nc3ccccc3)cc2c1	26.8 µM (inactive)	19.2 µM (inactive)	45.5 µM (inactive)	2.58 µM (inactive)	18.5 µM (inactive)	16.9 µM (inactive)	15 µM (inactive)	15.8 µM (inactive)	–	30.5 µM (inactive)	25.2 µM (inactive)	24.7 µM (inactive)	–	33.7 µM (inactive)	64.6 µM (inactive)	7.11 µM (inactive)	25.7 µM (inactive)	17.1 µM (inactive)	38.1 µM (inactive)
COc1ccccc1C[C@@H]1OC2(C=CC(=O)CC2SC(=O)c2ccccc2)O[C@H]1Cc1ccccc1OC (stereo not given in full)	–	0.216 µM (active)	2.44 µM (inactive)	–	1.51 µM (inactive)	1.46 µM (inactive)	1.25 µM (inactive)	1.35 µM (inactive)	–	1.59 µM (inactive)	1.91 µM (inactive)	2.48 µM (inactive)	2.71 µM (inactive)	3.78 µM (inactive)	1.65 µM (inactive)	0.308 µM (active)	0.241 µM (active)	2.46 µM (inactive)	1.56 µM (inactive)
